Tests used:
estrogen receptor = target: T1, estrogen receptor (Homo sapiens, UniProt P03372); test: In vitro estrogen receptor binding assay (competition with [3H]-17β-estradiol, cytosol of CHO cells overexpressing the receptor); settings: for IC50: read-out: Receptor Binding IC50's; for binding to the ER receptor, comparison in words: compared with the indenoindole Example 4, from Table 2
T1 construct: expressed in transfected cells; host or cells: CHO cells (ribosome-free cytosol)
T1 sequence (P03372 1-595): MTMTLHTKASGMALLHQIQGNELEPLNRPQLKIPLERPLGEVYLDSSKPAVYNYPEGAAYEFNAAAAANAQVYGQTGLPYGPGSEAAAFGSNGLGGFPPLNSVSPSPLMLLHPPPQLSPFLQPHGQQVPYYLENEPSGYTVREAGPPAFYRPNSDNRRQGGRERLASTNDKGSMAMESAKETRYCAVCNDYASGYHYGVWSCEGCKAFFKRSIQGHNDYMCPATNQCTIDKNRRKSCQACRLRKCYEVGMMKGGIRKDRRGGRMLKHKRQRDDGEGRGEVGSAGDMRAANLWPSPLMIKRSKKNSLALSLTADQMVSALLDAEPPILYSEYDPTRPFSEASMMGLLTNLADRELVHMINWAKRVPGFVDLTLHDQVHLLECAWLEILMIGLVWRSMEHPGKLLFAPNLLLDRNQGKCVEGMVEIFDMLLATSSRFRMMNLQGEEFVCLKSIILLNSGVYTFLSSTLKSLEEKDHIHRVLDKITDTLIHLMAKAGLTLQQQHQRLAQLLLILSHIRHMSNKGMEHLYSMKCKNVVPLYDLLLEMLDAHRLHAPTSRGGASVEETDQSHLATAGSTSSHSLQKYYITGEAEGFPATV
Method: The plates were washed twice with PBS and once with 10 mM Tris-HCl, pH 7.4, 1 mM EDTA. Cells were harvested by scraping the surface and then the cell suspension was placed on ice. Cells were disrupted with a hand-held motorized tissue grinder using two, 10-second bursts. The crude preparation was centrifuged at 12,000g for 20 minutes followed by a 60 minute spin at 100,000g to produce a ribosome free cytosol. The cytosol was then frozen and stored at -80°C. Protein concentration of the cytosol was estimated using the BCA assay with reference standard protein. […] The plate was incubated at room temperature for 2.5 h. At the end of this incubation period 150 uL of ice-cold dextran coated charcoal (5% activated charcoal coated with 0.05% […] dextran) was added to each well and the plate was immediately centrifuged at 99g for 5 minutes at 4°C. 200 uL of the supernatant solution was then removed for scintillation counting. […] Also, wells containing radioactivity but no cytosol were processed with charcoal to estimate unremovable DPM of [^3H] 17β-estradiol. Counts per minute (CPM) of radioactivity were automatically converted to disintegrated per minute (DPM) by the Beckman LS 7500 Scintillation Counter using a set of quenched standards to generate a H# for each sample. […]

human estrogen receptor = target: T2, human estrogen receptor (Homo sapiens, UniProt P03372); test: 2X VIT ERE infection luciferase assay in CHO cells stably transfected with the human estrogen receptor; assay type: cell-based; settings: for Infection Luciferase Activity, 1 uM + 17β estradiol: 1 uM compound + 1 nM 17β-estradiol, 24 h (tests for estrogen antagonism), percentage of activity as compared to 17β-estradiol; for Infection Luciferase Activity, 1 uM: 1 uM compound alone, 24 h, percentage of activity as compared to 17β-estradiol (agonism)
T2 construct: expressed in transfected cells
Method: Chinese Hamster Ovary cells (CHO) which had been stably transfected with the human estrogen receptor were maintained in DMEM + 10% fetal bovine serum (FBS). 48h prior to treatment the growth medium was replaced with DMEM lacking phenol red + 10% dextran coated charcoal stripped FBS (treatment medium). Cells were plated at a density of 5000 cells/well in 96-well plates containing 200 µL of medium/well.
Reporter DNA (Promega plasmid pGL2 containing two tandem copies of the vitellogenin ERE in front of the minimal thymidine kinase promoter driving the luciferase gene) was combined with the B-galactosidase expression plasmid pCH110 (Pharmacia) and carrier DNA (pTZ18U) in the following ratio: • 10uG of reporter DNA • 5uG of pCH110DNA • 5 uG of pTZ18U • 20 uG of DNA/1 mL of transfection solution
The DNA (20uG) was dissolved in 500 uL of 250 mM sterile CaCl2 and added dropwise to 500 uL of 2 X HeBS (0.28 M NaCl, 50 mM HEPES, 1.5 mM Na2HPO4, pH 7.05) and incubated at room temperature for 20 minutes. 20 uL of this mixture was added to each well of cells and remained on the cells for 16 h. […] Each treatment condition was performed on 8 wells (n=8) which were incubated for 24 h prior to the luciferase assay.
After 24h exposure to compounds, the media was removed and each well washed 2X with 125 uL of PBS lacking Mg^++ and Ca^++. After removing the PBS, 25 uL of Promega lysis buffer was added to each well and allowed to stand at room temperature for 15 min, followed by 15 min at -80°C and 15 min at 37°C. 20 uL of lysate was transferred to an opaque 96 well plate for luciferase activity evaluation and the remaining lysate (5 uL) was used for the B-galactosidase activity evaluation (normalize transfection). The luciferan substrate (Promega) was added in 100 uL aliquots to each well automatically by the luminometer and the light produced (relative light units) was read 10 seconds after addition.
To the remaining 5 uL of lysate 45 uL of PBS was added. Then 50 uL of Promega B-galactosidase 2X assay buffer was added, mixed well and incubated at 37°C for 1 hour. A plate containing a standard curve (0.1 to 1.5 milliunits in triplicate) was set up for each experimental run. The plates were analyzed on a Molecular Devices spectrophotometric plate reader at 410 nm. The optical densities for the unknown were converted to milliunits of activity by mathematical extrapolation from the standard curve.
The luciferase data was generated as relative light units (RLUs) accumulated during a 10 second measurement and automatically transferred to a JMP (SAS Inc) file where background RLUs were subtracted. The B-galactosidase values were automatically imported into the file and these values were divided into the RLUs to normalize the data. The mean and standard deviations were determined from a n=8 for each treatment.

Row | Structure (SMILES) | IC50 (estrogen receptor) [µM] | Infection Luciferase Activity, 1 uM + 17β estradiol (human estrogen receptor) [%] | Infection Luciferase Activity, 1 uM (human estrogen receptor) [%] | binding to the ER receptor, comparison in words (estrogen receptor)
1 | COc1ccc2c(c1)Cc1c-2n(Cc2ccc(OCCN3CCCCC3)cc2)c2ccc(O)cc12 [Example 4, 2-Methoxy-5-[4-(2-piperidin-1-yl-ethoxy)-benzyl]-5,10-dihydro-indeno[1,2-b]indol-8ol] | 0.43 | 83 | -2 | 
2 | COc1ccc2c(c1)CCc1c-2n(Cc2ccc(OCCN3CCCCC3)cc2)c2ccc(O)cc12 [Example 13, 3-Methoxy-11-[4-(2-piperidin-1-yl-ethoxy)-benzyl]-5,11-dihydro-6H-benzo[a]carbazol-8-ol] | 0.11 | 1 | -7 | bind better to the ER receptor than the indenoindole Example 4
3 | COc1ccc2c(c1)CCc1c-2n(Cc2ccc(OCCN3CCCCCC3)cc2)c2ccc(O)cc12 [Example 14] | 0.19 | 8 | 1 | bind better to the ER receptor than the indenoindole Example 4

Reference: patent publication EP1082319B1, “BENZOCARBAZOLE AND INDENOINDOLE DERIVED ESTROGENIC AGENTS” (Wyeth, priority 1998, dated 1999)
